Assay results reported in patent US4719223A, “Imidazolethiol dopamine-beta-hydroxylase inhibitors” (SmithKline Beckman Corporation, priority 1985, dated 1988).
Like-named read-outs stand apart in the source and are kept apart here.

Columns and labels:
[1] = target: T1, dopamine-β-hydroxylase (DBH) (Bos taurus, UniProt P15101); assay: in vitro DBH inhibition (conversion of tyramine to octopamine, absorbance at 330 nm); format: biochemical; details: for DBH inhibiting activity: phenolic hydroxy group replaced by isostere
T1 sequence (P15101 1-610): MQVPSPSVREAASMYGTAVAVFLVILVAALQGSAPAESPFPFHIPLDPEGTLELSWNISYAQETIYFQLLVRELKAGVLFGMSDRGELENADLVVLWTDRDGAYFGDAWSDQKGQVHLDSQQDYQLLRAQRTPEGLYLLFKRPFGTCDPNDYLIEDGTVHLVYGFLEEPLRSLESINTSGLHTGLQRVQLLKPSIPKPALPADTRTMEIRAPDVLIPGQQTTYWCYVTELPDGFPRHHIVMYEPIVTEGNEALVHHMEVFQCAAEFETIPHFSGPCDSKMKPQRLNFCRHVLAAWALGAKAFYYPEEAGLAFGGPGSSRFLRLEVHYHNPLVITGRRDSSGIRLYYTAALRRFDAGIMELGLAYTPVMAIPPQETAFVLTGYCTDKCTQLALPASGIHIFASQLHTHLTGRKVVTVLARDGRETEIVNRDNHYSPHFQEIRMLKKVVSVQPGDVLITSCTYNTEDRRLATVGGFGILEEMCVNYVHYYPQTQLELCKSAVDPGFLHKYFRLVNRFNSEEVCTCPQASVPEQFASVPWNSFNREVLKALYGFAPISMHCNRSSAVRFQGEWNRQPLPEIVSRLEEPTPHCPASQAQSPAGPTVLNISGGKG
Procedure: Because the compounds of Formula I inhibit DBH activity, they have therapeutic value as diuretic, natriuretic, cardiotonic, antihypertensive and vasodilator agents, as well as antiulcerogenic and anti-Parkinsonian agents. Listed in Table I are the compounds of the invention that were tested for in vitro DBH inhibition by a standard procedure for assaying conversion of tyramine to octopamine in the presence of DBH. J. J. Pisano, et al., Biochim. Biophys. Acta; 43, […] (1960). Octopamine was assayed following sodium periodate oxidation to p-hydroxybenzaldehyde by measuring spectrophotometric absorbance at 330 nm. In Table I, inhibition is given in molar concentration of compound at which DBH activity was halved (IC50). Melting points (mp) are given in °C.
This testing was performed using compounds prepared by substituting various phenolic isosteres for the phenolic hydroxy group of another DBH inhibitor, 1-(3',5'-difluoro-4'-hydroxybenzyl)imidazole-2-thiol (U.S. patent application Ser. No. 590,665, filed Mar. 19, 1984).

[2] = tested on: peripheral dopamine (DA) and norepinephrine (NE) levels; assay: in vivo effect on peripheral dopamine (DA) and norepinephrine (NE) levels; design: species or system spontaneously hypertensive rats; details: 50 mg/kg orally, twice, about 18 h apart, sacrificed about 2 h after second dose; for DA/NE Ratio / DA: p < 0.001; for NE / DA: μg per gram of tissue
Procedure: One of the compounds of the invention was tested for its effect in vivo on peripheral dopamine (DA) and norepinephrine (NE) levels substantially by the procedure of DaPrada and Zurcher, Life Sciences, 19, 1161, (1976). Groups of five spontaneously hypertensive rats were dosed orally, twice, the second dose approximately 18 hours after the first, and were sacrificed about 2 hours after the second dose.

[3] = mean arterial blood pressure in spontaneously hypertensive rats; format: in vivo; details: 50 mg/kg intraperitoneally; 15 min
Procedure: Further, spontaneously hypertensive rats were dosed with a suspension or solution of 1-(4'-amino-3',5'-difluorobenzyl)imidazole-2-thiol at a dose of 50 mg/kg intraperitoneally, and mean arterial blood pressure was monitored for 260 minutes using indwelling cannulae positioned in the tail arteries. Approximate forty percent reductions in blood pressure were observed fifteen minutes following administration of this compound. At 260 minutes after administration of this compound, blood pressure remained reduced by approximately ten percent when compared to vehicle-treated controls.

DBH [4] = details: cited from earlier work; for DBH inhibition: literature reports; for mode of DBH inhibition: apparent, phenethylamine analogues
[5] = Ehrreich et al. 1976; cited from earlier work
[6] = Teresawa et al. 1971; cited from earlier work
DBH [7] = details: Friedman et al. 1978; significance uncertain; cited from earlier work
[8] = in vitro, tyramine to octopamine, read-out: IC50 (molar concentration of compound at which DBH activity was halved)

Work on Oc1c(F)cc(Cn2cc[nH]c2=S)cc1F [1-(3',5'-difluoro-4'-hydroxybenzyl)imidazole-2-thiol] yielded an IC50 ([1]; comparison compound of U.S. patent application Ser. No. 590,665, read-out: IC50 of comparison DBH inhibitor) of 80 nM.

For Nc1c(Cl)cc(Cn2ccnc2S)cc1Cl [1-(4'-amino-3',5'-dichlorobenzyl)imidazole-2-thiol], the IC50 [1, 8] was 3100 nM.

With Nc1c(F)cc(Cn2ccnc2S)cc1F [1-(4'-amino-3',5'-difluorobenzyl)imidazole-2-thiol] the IC50 [1, 8] was 1200 nM, the “DA/NE Ratio” value [2] was 0.151 and the NE [2] was 5.53 µg/g. The DA [2] was 0.821 µg/g and the “reduction in blood pressure, fifteen minutes after administration” value [3] was “forty”.

In the case of O=C(O)c1ccc(CCC(Br)CBr)cn1 (stereo not shown) [5-(3,4-dibromobutyl)picolinic acid], the DBH inhibition (DBH [4]) is listed as “DBH inhibitors”.

For O=C(O)c1ccc(CCCCCl)cn1 [5-(4-chlorobutyl)picolinic acid], the DBH inhibition (DBH [4]) is given as “inhibit DBH”.

In the case of CN(C)C(=S)SCc1ccc(C(=O)O)nc1 [5-(dimethyldithiocarbamoyl)methylpicolinic acid], the DBH inhibition (DBH [4]) is given as “DBH inhibitors”.

With CS(=O)(=O)Cc1c(F)cc(Cn2ccnc2S)cc1F [--CH2 SO2 CH3] the DBH inhibiting activity ([1]; in vitro) was “devoid of DBH inhibiting activity”.

In the case of O=CNc1c(F)cc(Cn2ccnc2S)cc1F [--NHCHO], the DBH inhibiting activity ([1]; in vitro) is reported as “devoid of DBH inhibiting activity”.

For O=C(Nc1c(F)cc(Cn2ccnc2S)cc1F)C(F)(F)F [--NHCOCF3], the DBH inhibiting activity ([1]; in vitro) was “devoid of DBH inhibiting activity”.

In the case of NS(=O)(=O)Nc1c(F)cc(Cn2ccnc2S)cc1F [--NHSO2 NH2], the DBH inhibiting activity ([1]; in vitro) is reported as “devoid of DBH inhibiting activity”.

In the case of NOCc1ccccc1 [Benzyloxyamine, benzyloxyamine], the “mode of DBH inhibition” value (DBH [4]) is given as “competitive inhibitors”.

In the case of CCCCc1ccc(C(N)=O)nc1 [Bupicomide, 5-(n-butyl)picolinamine], the DBH inhibition (DBH [4]) is listed as “DBH inhibitor” and the antihypertensive activity [5] is listed as “antihypertensive activity”.

With CCCCc1ccc(C(=O)O)nc1 [Fusaric acid] the “DA/NE Ratio” value [2] was 0.0937, the NE [2] was 5.63 µg/g and the DA [2] was 0.529 µg/g. For the same compound, the hepatotoxicity [6] was “hepatotoxic”.

For C[C@](N)(Cc1ccc(O)c(O)c1)C(=O)O [alpha-methyl-DOPA], the “DBH levels in treated patients” value (DBH [7]) is listed as “lowered DBH levels”.

In the case of NNCc1ccccc1 [benzylhydrazine], the “mode of DBH inhibition” value (DBH [4]) is given as “competitive inhibitors”.

For COC(=O)[C@H]1[C@H]2C[C@@H]3c4[nH]c5cc(OC)ccc5c4CCN3C[C@H]2C[C@@H](OC(=O)c2cc(OC)c(OC)c(OC)c2)[C@@H]1OC [reserpine], the “DBH levels in treated patients” value (DBH [7]) is given as “lowered DBH levels”.

In the case of phenylpicolinic acid, the “DBH inhibitory activity relative to fusaric acid” value (DBH [4]; Runti et al. 1980) is given as “twice the inhibitory activity of fusaric acid”.
